Test results from patent US6767718B2, “Lipodepsipeptide antibiotics and methods of preparation” (BioSource Pharm, Inc., priority 2002, dated 2004).
Numbered stars: 1 amine (or outer) side, 2 acyl side, 3 side chain; on linkers, the order of the positions; unused ones are H or OH. Bridge positions count the residues as written; N and C are the ends. Square brackets hold non-standard residues; d marks the D form. Peptide text beside a SMILES is read from it. * marks the point of attachment. X1 = CC(CC(=O)O)C(N[*:1])C(=O)[*:2]; Kyn = Nc1ccccc1C(=O)C[CH](N)C(=O)O; NH(CH2)11CH3 = CCCCCCCCCCCCN*; Orn = NCCC[CH](N)C(=O)O; CO = O=C([*:1])[*:2]

Legend:
[1] = test system: Staphlococcus aureus strain Smith; test: MIC by serial twofold broth dilution in Mueller Hinton broth without and with 4 mmolar CaCl2; format: cell-based, Staphylococcus aureus; details: for MIC vs. S. aureus w Ca++ / MIC vs. S. aureus wo Ca++: S. aureus strain Smith; for MIC vs. S. aureus w Ca++: Mueller Hinton broth with 4 mmolar CaCl2; for MIC vs. S. aureus wo Ca++: Mueller Hinton broth without CaCl2
[2] = test system: gram positive bacteria including methicillin-resistant Staphylococcus aureus (MRSA) and vancomycin-resistant enterococci (VRE); details: including MRSA and VRE strains; cited from earlier work

| Compound | MIC vs. S. aureus w Ca++ [1] | MIC vs. S. aureus wo Ca++ [1] | Activity against gram positive bacteria (in words) [2] | Antibacterial activity (in words) ([1]; carbamoyl-linked compounds, Table 2) |
| --- | --- | --- | --- | --- |
| CH3(CH2)8CO-L-Harm-Asn-Asp-cdpeptide [Compound 13] | 5.0 | >10 | – | – |
| CH3(CH2)8CO-Asn-Asp-cdpeptide [Compound 4] | >10 | >20 | – | – |
| CH3(CH2)8CO-D-Harm-Asn-Asp-cdpeptide [Compound 14] | >10 | >10 | – | – |
| CH3(CH2)8CO-Trp-Asn-Asp-cdpeptide [daptomycin, reference compound] | 0.16 | 2.5 | excellent activity | – |
| CH3(CH2)11NHCO-Asn-Asp-FMOC-cdpeptide [Compound 2] | 5.0 | >20 | – | – |
| CCCCCCCCCC(=O)NC(Cc1cccc2ccccc12)C(=O)NC(CC(N)=O)C(=O)NC(CC(=O)O)C(=O)NC1C(=O)NCC(=O)NC(CCCN)C(=O)NC(CC(=O)O)C(=O)NC(C)C(=O)NC(CC(=O)O)C(=O)NCC(=O)NC(CO)C(=O)NC(C(C)CC(=O)O)C(=O)NC(CC(=O)c2ccccc2N)C(=O)OC1C [Compound 11, N-Decanoyl-L-β-(1-naphthyl)alanyl-cyclodepsipeptide-2] | 0.16 | 2.5 | – | – |
| CH3(CH2)8CO-Trp-Asn-Asp-tBOC-cdpeptide [tBOC daptomycin, reference compound] | 0.6 | >2.5 | – | – |
| CH3(CH2)9SO2-L-Phe-Asn-Asp-FMOC-cdpeptide [Compound 8] | 5.0 | >20 | – | – |
| CCCCCCCCCCCCNC(=O)NC(CC(=O)O)C(=O)NC1C(=O)NCC(=O)NC(CCCN)C(=O)NC(CC(=O)O)C(=O)NC(C)C(=O)NC(CC(=O)O)C(=O)NCC(=O)NC(CO)C(=O)NC(C(C)CC(=O)O)C(=O)NC(CC(=O)c2ccccc2N)C(=O)OC1C (centres unmarked) [Compound 1, N-Dodecylcarbamoyl-cyclodepsipeptide-1] ({NH(CH2)11CH3-CO}-DTG[Orn]DADGS[X1][Kyn]; ester 2-C; configuration not given here) | 10.0 | >20 | – | good antibacterial activity |
